Experimental data from PMC12176262 (The Febs Journal, 2025).
Like-named read-outs stand apart in the source and are kept apart here.

T1: MCM6 winged-helix domain (WHD) C721S mutant, residues 708-821 (human, UniProt Q14566 708-821, C721S)
T1 sequence (looked up): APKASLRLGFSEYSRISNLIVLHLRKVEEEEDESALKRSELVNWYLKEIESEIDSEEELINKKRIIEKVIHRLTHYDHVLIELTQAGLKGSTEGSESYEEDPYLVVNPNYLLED


What was measured:
MCM6 = conditions: ref [56], cited from earlier work
[1] = molecular target: T1, MCM6 winged-helix domain (WHD) C721S …; test: fluorescence polarisation

Molecule	interaction with MCM6 (MCM6; both MBD-C and D regions mutated)	interaction with MCM6 (MCM6; either MBD-C or D regions deleted)	fold, competition of MBD-C against FITC-MBD-C relative to FITC-MBD-D [1] [fold]
Bloom syndrome helicase [BLM]	weakened the interaction	do not interact	–
WLSSDVICI (peptide, UniProt P54132 230-238, looked up) [BLM MCM6 binding domain C peptide (BLM 230-238), unlabeled]	–	–	1.7
